Measured values from patent publication US8835467B2, “SIR2 regulation” (Albert Einstein College of Medicine of Yeshiva University, priority 2003, dated 2014).
Several values for one entry are separate records, joined by “and”; a condition that tells them apart may be missing. Equal entries are not always repeated.

Legend:
[1] = molecular target: T1, Af2Sir2 (archaean) (Archaeoglobus fulgidus, UniProt O30124); test: biochemical
T1 sequence (O30124 1-253): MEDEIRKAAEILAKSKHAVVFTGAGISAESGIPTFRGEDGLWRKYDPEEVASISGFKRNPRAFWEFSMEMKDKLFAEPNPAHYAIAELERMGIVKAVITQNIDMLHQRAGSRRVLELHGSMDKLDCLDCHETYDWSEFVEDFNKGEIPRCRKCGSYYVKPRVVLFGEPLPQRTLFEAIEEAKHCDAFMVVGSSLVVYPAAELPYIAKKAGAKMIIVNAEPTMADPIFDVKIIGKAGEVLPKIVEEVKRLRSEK
Procedure: (§3) NAD^+ in 50 μL 50 mM potassium phosphate pH 7.0. Each solution also contained a variable amount of 2-Fluoronicotinamide with concentrations of 0, 5, 10, 20, 40 and 80 mM of the compound. […] Deacetylation was assayed by integration of the peaks for AADPR and ADPR in reaction mixtures.

[2] = molecular target: T2, Sir2p (yeast) (Saccharomyces cerevisiae, UniProt P06700); test: HPLC assay of deacetylation, histone H4 substrate (Example 3); type: biochemical; settings: Yeast enzyme
T2 sequence (P06700 whole entry): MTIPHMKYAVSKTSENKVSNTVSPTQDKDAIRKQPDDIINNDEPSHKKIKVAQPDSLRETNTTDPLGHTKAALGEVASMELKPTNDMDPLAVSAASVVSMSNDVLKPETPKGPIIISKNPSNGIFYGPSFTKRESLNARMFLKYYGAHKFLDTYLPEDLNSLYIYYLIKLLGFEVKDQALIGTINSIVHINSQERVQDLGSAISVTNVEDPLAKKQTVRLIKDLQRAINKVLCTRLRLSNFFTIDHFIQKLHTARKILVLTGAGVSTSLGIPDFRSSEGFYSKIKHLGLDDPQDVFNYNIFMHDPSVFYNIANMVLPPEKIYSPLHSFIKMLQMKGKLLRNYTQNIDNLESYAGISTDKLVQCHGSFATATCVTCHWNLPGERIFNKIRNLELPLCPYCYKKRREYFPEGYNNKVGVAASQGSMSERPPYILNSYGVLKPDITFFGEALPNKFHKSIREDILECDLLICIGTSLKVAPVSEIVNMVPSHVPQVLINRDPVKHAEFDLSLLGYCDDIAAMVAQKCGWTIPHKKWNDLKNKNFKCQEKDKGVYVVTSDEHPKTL

[3] = molecular target: T1, Af2Sir2 (archaean); test: HPLC assay of base exchange, histone H4 substrate (Example 3); settings: Archaea enzyme
Procedure: as §3

[4] = molecular target: T1, Af2Sir2 (archaean); test: HPLC assay of deacetylation, histone H4 substrate (Example 3); type: biochemical; settings: Archaea enzyme
Procedure: as §3

[5] = molecular target: T2, Sir2p (yeast); test: HPLC assay of base exchange, histone H4 substrate (Example 3); type: biochemical; settings: for % rate (base exchange) / Cpm/sample (radioactivity in NAD peak): Yeast enzyme
[6] = molecular target: T3, Yeast SIR2p (Saccharomyces cerevisiae, UniProt P06700); test: SIR2 deacetylation assay (p53 peptide, HPLC of ADPR and 3′-O-acetyl-ADPR); type: biochemical
T3 construct: made in house
T3 sequence (P06700 whole entry): as above
Procedure: (§1) After 2 hours, aliquots of 10 μL removed at 0, 30, 60, 90 and 120 min. Each aliquot was combined with 50 μL 50 mM ammonium acetate pH 5.0 to quench and assayed by HPLC for deacetylation products and NAD^+. The chromatograms (260 nm) were obtained using 50 mM ammonium acetate pH 5.0 as eluant on a semi-preparative Waters C-18 column (2.0 mL/min flow rate). Peaks for ADPR and 3′-O-Acetyl-ADPR were quantified by integration. The peak for NAD^+ was collected and radiation counted.
(§2) Reactions were as above but base reactions contained 5 mM of pyrazinamide, isonicotinamide, thionicotinamide, or benzamide. Reactions were carried out (2 hours for AF2 and yeast enzymes and 3 hours for mouse enzyme) at 37° C. and quenched by addition of 80 μL 50 mM ammonium acetate pH 5.0. Product formation was quantified by HPLC. […] Rates were compared with controls lacking added base.

[7] = molecular target: T4, Mouse SIR2 enzyme (SIR2α) (Mus musculus, UniProt Q923E4); test: as above; type: biochemical
T4 construct: purchased Upstate Group
T4 sequence (Q923E4 1-737): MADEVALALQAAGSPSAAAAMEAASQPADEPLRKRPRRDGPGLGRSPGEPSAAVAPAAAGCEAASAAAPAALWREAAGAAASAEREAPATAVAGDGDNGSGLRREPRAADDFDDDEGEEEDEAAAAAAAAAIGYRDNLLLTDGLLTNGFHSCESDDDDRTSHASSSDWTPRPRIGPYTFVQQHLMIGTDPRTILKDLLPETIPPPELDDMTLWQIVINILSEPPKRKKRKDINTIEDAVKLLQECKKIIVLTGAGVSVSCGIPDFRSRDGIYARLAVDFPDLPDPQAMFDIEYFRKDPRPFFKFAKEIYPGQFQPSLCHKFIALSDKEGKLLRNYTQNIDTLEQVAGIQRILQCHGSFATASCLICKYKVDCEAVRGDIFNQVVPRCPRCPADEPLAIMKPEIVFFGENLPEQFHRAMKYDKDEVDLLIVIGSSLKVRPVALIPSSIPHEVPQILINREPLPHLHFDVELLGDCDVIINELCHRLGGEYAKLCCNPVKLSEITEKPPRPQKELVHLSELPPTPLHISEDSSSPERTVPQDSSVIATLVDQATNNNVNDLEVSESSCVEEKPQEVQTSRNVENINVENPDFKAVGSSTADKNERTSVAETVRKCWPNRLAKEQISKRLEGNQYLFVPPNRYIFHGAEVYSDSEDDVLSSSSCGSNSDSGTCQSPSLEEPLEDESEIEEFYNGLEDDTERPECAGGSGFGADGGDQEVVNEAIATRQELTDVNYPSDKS
Procedure: as §1, §2

[8] = molecular target: T5, Bacterial SIR2Af2 (Archaeoglobus fulgidus, UniProt O30124); test: as above; type: biochemical, Archeaglobus fulgidus
T5 construct: made in house
T5 sequence (O30124 1-253): T1 sequence (O30124 1-253)
Procedure: as §1, with “counted. […] Plots of deacetylation rate versus nicotinamide were fit to the equations described in the text.” for “counted.”
Reactions were as above but base reactions contained 5 mM of pyrazinamide, isonicotinamide, thionicotinamide, or benzamide. Reactions were carried out (2 hours for AF2 and yeast enzymes and 3 hours for mouse enzyme) at 37° C. and quenched by addition of 80 μL 50 mM ammonium acetate pH 5.0. Product formation was quantified by HPLC. Thionicotinamide-NAD^+ was synthesized by CD38. Rates were compared with controls lacking added base.

[9] = molecular target: Yeast Sir2 (Saccharomyces cerevisiae, UniProt P06700); test: Sir2 catalyzed deacetylation of H4 N-terminal peptide; type: biochemical; settings: Ki, apparent nicotinamide inhibition constant (deacetylation)
Chain of Yeast Sir2 (P06700 whole entry): as the sequence (P06700 whole entry) above
Procedure: Measurements were performed by methods described in Sauve and Schramm (2003) with the H4N-terminal peptide (AGG(AcK)GG(AcK)GMG(AcK)VGA(AcK)RHSC) (Imai et al., 2000) as substrate.

[10] = molecular target: T5, Bacterial SIR2Af2; test: SIR2 nicotinamide base-exchange assay (p53 peptide, HPLC/14C); type: biochemical, Archeaglobus fulgidus; design: kcat (exchange): dose or concentration left out as unconfirmed
Procedure: as §1, with “counted. […] Plots of deacetylation rate versus nicotinamide were fit to the equations described in the text.” for “counted.”

[11] = molecular target: T3, Yeast SIR2p; test: as above; type: biochemical; design: kcat (exchange): dose or concentration left out as unconfirmed
Procedure: as §1

[12] = molecular target: T4, Mouse SIR2 enzyme (SIR2α); test: as above; type: biochemical; design: kcat (exchange): dose or concentration left out as unconfirmed
Procedure: as §1

[13] = tested on: Sir2-dependent transcriptional silencing at the silent mating-type loci (HMR, HML); test: Silent mating-type locus reporter silencing, spot assay; type: cell-based, yeast
Procedure: The photographs were taken after 2 to 3 days incubation. […] Isogenic strains UCC4562 (DOT1) and UCC4554 (dot1Δ) (Singer et al., 1998) are shown in each panel (top and bottom rows, respectively). […] The phenotype of strain CCFY10028 (top row) is compared to an isogenic sir2 derivative (bottom row). The sir2 deletion strain was generated by PCR-mediated gene disruption using a Nat-MX selectable marker (Tong et al., 2004).
The deletion strains were generated by PCR-mediated gene disruption using a Nat-MX selectable marker (Tong et al., 2004). Silencing at TEL-VR::URA3 is reported by survival on FOA-containing media and at HMR::TRP1 is detected by reduced growth on media lacking tryptophan.
The effect of isonicotinamide on Sir2 activity at the silent mating-type loci was measured in an HMR: TRP1 strain by growth on medium lacking tryptophan (FIG. 8b). Silencing of TRP1 decreases growth on Trp^− media.

With NC(=O)c1cccnc1F as the compound, how does the Ki [1] read?
Its Ki is 43 mM.

What about the “% rate (deacetylation)” value ([2]; 5 mM) of the same compound?
Its value is 100%.

And the “% rate (deacetylation)” value ([2]; 10 mM)?
Its value is 97%.

What about the “% rate (deacetylation)” value ([2]; 20 mM) of the same compound?
Its value is 100%.

And the “% rate (deacetylation)” value ([2]; 40 mM)?
The value was 95%.

And the “% rate (deacetylation)” value ([2]; 80 mM)?
Its value is 95%.

What about the “% rate (base exchange)” value ([3]; 5 mM) of the same compound?
Its value is 91%.

And the “Cpm/sample (radioactivity in NAD peak)” value ([3]; 5 mM)?
Its value is 18,200 Cpm/sample.

And the “% rate (base exchange)” value ([3]; 10 mM)?
The value was 80%.

What about the “Cpm/sample (radioactivity in NAD peak)” value ([3]; 10 mM) of the same compound?
Its value is 16,100 Cpm/sample.

And the “% rate (base exchange)” value ([3]; 20 mM)?
Its value is 73%.

And the “Cpm/sample (radioactivity in NAD peak)” value ([3]; 20 mM)?
The value was 14,600 Cpm/sample.

And the “% rate (base exchange)” value ([3]; 40 mM)?
Its value is 50%.

What about the “Cpm/sample (radioactivity in NAD peak)” value ([3]; 40 mM) of the same compound?
Its value is 10,300 Cpm/sample.

What about the “% rate (base exchange)” value ([3]; 80 mM) of the same compound?
The value was 35%.

What about the “Cpm/sample (radioactivity in NAD peak)” value ([3]; 80 mM) of the same compound?
The value was 7,000 Cpm/sample.

And the “% rate (deacetylation)” value ([4]; 5 mM)?
Its value is 100%.

And the “% rate (deacetylation)” value ([4]; 10 mM)?
The value was 100%.

And the “% rate (deacetylation)” value ([4]; 20 mM)?
Its value is 100%.

And the “% rate (deacetylation)” value ([4]; 40 mM)?
Its value is 100%.

And the “% rate (deacetylation)” value ([4]; 80 mM)?
The value was 100%.

And the Ki [5]?
Its Ki is 20 mM.

And the “% rate (base exchange)” value ([5]; 5 mM)?
The value was 76%.

What about the “Cpm/sample (radioactivity in NAD peak)” value ([5]; 5 mM) of the same compound?
The value was 24,500 Cpm/sample.

And the “% rate (base exchange)” value ([5]; 10 mM)?
The value was 58%.

And the “Cpm/sample (radioactivity in NAD peak)” value ([5]; 10 mM)?
Its value is 18,800 Cpm/sample.

And the “% rate (base exchange)” value ([5]; 20 mM)?
The value was 47%.

And the “Cpm/sample (radioactivity in NAD peak)” value ([5]; 20 mM)?
The value was 15,200 Cpm/sample.

And the “% rate (base exchange)” value ([5]; 40 mM)?
Its value is 36%.

And the “Cpm/sample (radioactivity in NAD peak)” value ([5]; 40 mM)?
Its value is 11,600 Cpm/sample.

And the “% rate (base exchange)” value ([5]; 80 mM)?
The value was 28%.

What about the “Cpm/sample (radioactivity in NAD peak)” value ([5]; 80 mM) of the same compound?
The value was 9,000 Cpm/sample.

With NC(=O)c1ccccc1 [Benzamide] as the compound, how does the inhibition at 5000 µM [6] read?
The inhibition at 5000 µM was 0%.

And the inhibition at 5000 µM [7]?
The inhibition at 5000 µM was 44%.

And the inhibition at 5000 µM [8]?
The inhibition at 5000 µM was 5%.

Which results are given for NC(=O)c1cnccn1 [Pyrazinamide]?
inhibition at 5000 µM [6]: 1%; inhibition at 5000 µM [7]: 1%; inhibition at 5000 µM [8]: 4%

Which results are given for NC(=S)c1cccnc1 [Thionicotinamide]?
inhibition at 5000 µM [6]: 15%; inhibition at 5000 µM [7]: 16%; inhibition at 5000 µM [8]: 4%

How did the Ki ([9]; 0 mM isonicotinamide) turn out when NC(=O)c1cccnc1 [nicotinamide] was run?
The Ki was 100 µM.

What about the Ki ([9]; 60 mM isonicotinamide) of the same compound?
The Ki was 180 µM.

What about the Ki ([9]; 100 mM isonicotinamide) of the same compound?
The Ki was 330 µM.

And the Ki [10]?
Its Ki is over 8 mM.

What about the “kcat (exchange)” value ([10]; bacterial enzyme, from nicotinamide saturation curves, pH 7.8) of the same compound?
The value was 0.35 ± 0.04 min⁻¹.

What about the Ki [11] of the same compound?
The Ki was over 8 mM.

What about the “kcat (exchange)” value ([11]; yeast enzyme, from nicotinamide saturation curves, pH 7.8) of the same compound?
Its value is 5.8 ± 0.4 min⁻¹.

What about the Ki [12] of the same compound?
The Ki was over 8 mM.

And the “kcat (exchange)” value ([12]; mouse enzyme, from nicotinamide saturation curves, pH 7.8)?
The value was 3.0 ± 0.2 min⁻¹.

What about the Ki [6] of the same compound?
Its Ki is 120 ± 25 µM.

What about the “intermediate returned to acetylated protein” value (shortened to “intermediate returned”) ([6]; yeast SIR2, saturation of the nicotinamide site) of the same compound?
Its value is 65%.

What about the “reduction of deacetylation rate by nicotinamide” value ([6]; yeast enzyme, high (millimolar) nicotinamide) of the same compound?
The value was 65%.

And the “kinh (deacetylation), residual deacetylation rate” value (shortened to “kinh … residual deacetylation rate”) ([6]; yeast enzyme, in the presence of 2 mM nicotinamide)?
Its value is 0.60 ± 0.08 min⁻¹.

And the Ki [7]?
Its Ki is 160 µM.

What about the “intermediate returned” value ([7]; mouse SIR2, saturation of the nicotinamide site) of the same compound?
Its value is 95%.

And the “inhibition of deacetylation by nicotinamide” value ([7]; mouse enzyme, high nicotinamide concentrations)?
The value was > 95% and 95%.

What about the “kinh … residual deacetylation rate” value ([7]; mouse enzyme, in the presence of 2 mM nicotinamide) of the same compound?
The value was 0.014 ± 0.002 min⁻¹.

What about the “growth phenotype of isogenic sir2Δ strain” value ([13]; HMR::TRP1, Trp− medium) of the same compound?
Its value is “Neither compound altered the growth phenotype”.

What about the “growth on Trp− medium” value ([13]; HMR::TRP1 strain, 5 mM nicotinamide) of the same compound?
The value was “increased growth”.

And the Ki [8]?
Its Ki is 26 ± 4 µM.

What about the “intermediate returned” value ([8]; bacterial SIR2, saturation of the nicotinamide site) of the same compound?
Its value is 21%.

What about the “reduction of deacetylation rate by nicotinamide” value ([8]; bacterial enzyme, high (>10 Ki) nicotinamide) of the same compound?
The value was 21%.

What about the “kinh … residual deacetylation rate” value ([8]; bacterial enzyme, in the presence of 2 mM nicotinamide) of the same compound?
Its value is 1.4 ± 0.2 min⁻¹.
